Reference: ChEMBL document CHEMBL1201862, “PubChem BioAssay data set” (2004)
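Following 48 hours of exposure in 96-well plates, responses at five concentrations were used to interpolate endpoints linearly. GI50 marks 50% less growth.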 Active and inactive are the calls of the source. No stated cut-off is given here; in the data, active = GI50 up to about 1.1 µM and inactive = higher.

Legend:
Experiment in all cases: NCI anticancer screen, dose series, 48 h
A498 = system: A498
CAKI-1 = system: CAKI-1
DU-145 = system: DU-145
EKVX = system: EKVX
HCC 2998 = system: HCC 2998
KM12 = system: KM12
MCF7 = system: MCF7
MDA-MB-231 = system: MDA-MB-231
MDA-N = system: MDA-N
NCI-H226 = system: NCI-H226
NCI-H460 = system: NCI-H460
OVCAR-4 = system: OVCAR-4
PC-3 = system: PC-3
RXF 393 = system: RXF 393
SNB-19 = system: SNB-19
SNB-75 = system: SNB-75
LOX IMVI = system: LOX IMVI
NCI/ADR-RES = system: NCI/ADR-RES
Hs-578T = system: Hs-578T
SF-268 = system: SF-268

Measured: GI50

CC(C)CC(O)P(=O)(O)O.NC1CCCCC1 (configuration not stated)
inactive: A498 > 100 µM | CAKI-1 > 100 µM | DU-145 > 100 µM | EKVX > 100 µM | HCC 2998 > 100 µM | KM12 > 100 µM | MCF7 > 100 µM | MDA-MB-231 > 100 µM | MDA-N > 100 µM | NCI-H226 > 100 µM | NCI-H460 > 100 µM | OVCAR-4 > 100 µM | PC-3 > 100 µM | RXF 393 > 100 µM | SNB-19 > 100 µM | SNB-75 > 100 µM

COc1nc2c(c(=O)[nH]1)N=C(c1ccc([N+](=O)[O-])cc1)CC(c1ccccc1)N2 (configuration not stated)
inactive: A498 > 100 µM | CAKI-1 > 100 µM | DU-145 > 100 µM | EKVX 95.9 µM | HCC 2998 > 100 µM | KM12 70.5 µM | LOX IMVI 38.4 µM | MCF7 57.7 µM | MDA-MB-231 > 100 µM | MDA-N > 100 µM | NCI-H226 > 100 µM | NCI-H460 73.6 µM | NCI/ADR-RES > 100 µM | OVCAR-4 62.8 µM | PC-3 84.3 µM | RXF 393 94.6 µM | SNB-19 > 100 µM | SNB-75 32.8 µM

O=C(CSCC(=O)N/N=C/c1ccc(F)cc1)N/N=C/c1ccc(F)cc1
inactive: A498 38.2 µM | DU-145 > 100 µM | EKVX > 100 µM | HCC 2998 66.8 µM | Hs-578T > 100 µM | KM12 > 100 µM | MCF7 46.6 µM | MDA-MB-231 > 100 µM | NCI-H226 > 100 µM | NCI-H460 > 100 µM | NCI/ADR-RES > 100 µM | OVCAR-4 > 100 µM | PC-3 66.2 µM | RXF 393 85.1 µM | SF-268 > 100 µM | SNB-19 > 100 µM | SNB-75 > 100 µM

COP(=O)(OC)C(O)CC(C)C (configuration not stated)
inactive: A498 > 100 µM | CAKI-1 > 100 µM | DU-145 > 100 µM | EKVX > 100 µM | HCC 2998 > 100 µM | KM12 > 100 µM | MCF7 > 100 µM | MDA-MB-231 > 100 µM | MDA-N > 100 µM | NCI-H226 > 100 µM | NCI-H460 > 100 µM | OVCAR-4 > 100 µM | PC-3 > 100 µM | RXF 393 > 100 µM | SNB-19 > 100 µM | SNB-75 > 100 µM

CN1c2ccccc2C(=O)Nc2cnc(Cl)nc21
inactive: A498 73.6 µM | CAKI-1 > 100 µM | DU-145 > 100 µM | EKVX > 100 µM | HCC 2998 > 100 µM | KM12 > 100 µM | LOX IMVI > 100 µM | MCF7 > 100 µM | MDA-MB-231 44.3 µM | MDA-N > 100 µM | NCI-H226 > 100 µM | NCI/ADR-RES 82.6 µM | OVCAR-4 93.1 µM | PC-3 > 100 µM | RXF 393 > 100 µM | SNB-19 36.6 µM | SNB-75 39.2 µM

COC(=O)C1=C(CCCCO[Si](C)(C)C(C)(C)C)NC(=O)N2[C@@H](CCOCc3ccccc3)CC[C@H]12
inactive: A498 53 µM | CAKI-1 16.8 µM | DU-145 12.8 µM | EKVX 15.8 µM | HCC 2998 24.4 µM | KM12 18.3 µM | MCF7 27 µM | MDA-MB-231 18.2 µM | MDA-N 17.6 µM | NCI-H460 25.9 µM | NCI/ADR-RES 15.3 µM | OVCAR-4 27.5 µM | PC-3 21.1 µM | SF-268 25.8 µM | SNB-19 23.6 µM | SNB-75 25.2 µM

COC(=O)[C@]1(c2cc3ccccc3[nH]2)CC2CNC1C1OC(C)(C)OC21 (some centres not stated)
inactive: CAKI-1 > 100 µM | DU-145 > 100 µM | EKVX > 100 µM | HCC 2998 > 100 µM | KM12 > 100 µM | LOX IMVI > 100 µM | MCF7 > 100 µM | MDA-MB-231 64.7 µM | MDA-N 75.9 µM | NCI-H226 > 100 µM | NCI-H460 > 100 µM | NCI/ADR-RES > 100 µM | OVCAR-4 > 100 µM | PC-3 > 100 µM | RXF 393 60.1 µM | SF-268 > 100 µM | SNB-19 > 100 µM | SNB-75 > 100 µM

Cc1nc(N)sc1/N=N/c1ccccc1Br
inactive: A498 14.2 µM | CAKI-1 43.5 µM | DU-145 34.7 µM | EKVX 18.3 µM | HCC 2998 8.87 µM | KM12 33.5 µM | LOX IMVI > 48.9 µM | MCF7 35.4 µM | MDA-MB-231 37.3 µM | MDA-N 27.9 µM | NCI-H226 39.7 µM | NCI-H460 22.9 µM | NCI/ADR-RES 39.4 µM | OVCAR-4 > 35.3 µM | PC-3 33.3 µM | RXF 393 21.8 µM | SF-268 17.2 µM | SNB-19 > 44.5 µM | SNB-75 10.3 µM

O=C1Nc2ccccc2/C1=N/Nc1nc(-c2ccc([N+](=O)[O-])cc2)cs1
inactive: CAKI-1 17.9 µM | DU-145 26.5 µM | EKVX 61 µM | HCC 2998 21.9 µM | KM12 28.5 µM | LOX IMVI 35.6 µM | MCF7 35.3 µM | MDA-MB-231 40.9 µM | MDA-N 27 µM | NCI-H226 38.9 µM | NCI-H460 11 µM | NCI/ADR-RES 15.6 µM | OVCAR-4 18.1 µM | PC-3 24 µM | SNB-19 44.1 µM | SNB-75 7.45 µM

Cc1ccc(Cc2n[nH]c(=O)n2-c2ccccc2)cc1
inactive: A498 37.5 µM | CAKI-1 > 100 µM | DU-145 > 100 µM | HCC 2998 > 100 µM | KM12 > 100 µM | MCF7 > 100 µM | MDA-MB-231 > 100 µM | MDA-N > 100 µM | NCI-H226 > 100 µM | NCI-H460 > 100 µM | NCI/ADR-RES > 100 µM | PC-3 > 100 µM | RXF 393 20.2 µM | SF-268 > 100 µM | SNB-19 > 100 µM | SNB-75 > 100 µM

NC1=NCC(c2ccccn2)C1c1ccc(F)cc1 (configuration not stated)
inactive: A498 > 100 µM | CAKI-1 > 100 µM | EKVX > 100 µM | HCC 2998 > 100 µM | KM12 > 100 µM | LOX IMVI > 100 µM | NCI-H226 > 100 µM | NCI-H460 > 100 µM | OVCAR-4 > 100 µM | RXF 393 > 100 µM | SF-268 > 100 µM | SNB-19 > 100 µM | SNB-75 > 100 µM

C/C(=N\NC(=O)c1ccncc1)c1cccc(F)c1
inactive: A498 > 10 µM | CAKI-1 > 10 µM | HCC 2998 > 10 µM | KM12 > 10 µM | LOX IMVI > 10 µM | MCF7 > 10 µM | MDA-N > 10 µM | NCI-H226 > 10 µM | NCI-H460 > 10 µM | NCI/ADR-RES > 10 µM | PC-3 > 10 µM | RXF 393 > 10 µM | SF-268 > 10 µM | SNB-19 > 10 µM | SNB-75 > 10 µM
